Columns and labels:
[1] = target: T1, CB1R (Homo sapiens, UniProt P21554, C107A/C139A/C149A/C238A/C355A/C382A/C386A/C415A/C431A/C449A/C98A/R336C); experiment: Bimane fluorescence of TM6-labeled minimal cysteine CB1R; format: biochemical; conditions: 10 μM ligand; apo 459 nm
T1 construct: N-terminal FLAG tag and C-terminal histidine tag was added to human full-length CB1; FLAG (N); histidine tag (C); made in house; host or cells: Spodoptera frugiperda Sf9 (baculovirus)
Experimental: A minimal cysteine version of CB1R was generated[73] where all the cysteine residues (except C256 and C264) were mutated to alanine. […] Excess label was removed using size exclusion chromatography on a Superdex 200 10/300 Increase column in 20 mM HEPES pH 7.5, 100 mM NaCl and 0.01% MNG/0.001% CHS. Bimane-labeled CB1R at […] was incubated with ligands (10 μM) for one hour at room temperature. Fluorescence data was collected at room temperature in a 150 μL cuvette with a FluorEssence v3.8 software on a Fluorolog instrument (Horiba) in photon-counting mode. Bimane fluorescence was measured by excitation at 370 nm with excitation and emission bandwidth passes of 4 nm. The emission spectra were recorded from 410 to 510 nm with 1 nm increment and 0.1 s integration time.

[2] = tested on: C56BL/6 mice; experiment: CFA-induced inflammatory pain model, Hargreaves test; format: in vivo, mouse; conditions: 0.2 mg/kg i.p.
Experimental: (§1) Hindpaw mechanical thresholds were determined with von Frey filaments using the up-down method. […] Each training has three sessions of five min. each.
The CFA model of chronic inflammation was induced as described previously. Briefly, CFA (Sigma) was diluted 1:1 with saline and vortexed for 30 min. When fully suspended, we injected 20 μL of CFA into one hindpaw. Heat thresholds were measured before the injection (baseline) and 3 days after the injection using the Hargreaves test.

[3] = tested on: C56BL/6 mice; experiment: Mechanical thresholds (von Frey), SNI model of neuropathic pain and naive mice; format: in vivo, mouse
Experimental: as §1
Under isoflurane anesthesia, two of the three branches of the sciatic nerve were ligated and transected distally, leaving the sural nerve intact. Behavior was tested 7 to 14 days after injury.

[4] = tested on: C56BL/6 mice; experiment: Formalin test; format: in vivo, mouse; conditions: 0.2 mg/kg i.p., 60 min observation
Experimental: Thirty minutes after an i.p. injection of the compounds, mice received an intraplantar injection of a 20μl solution containing 2% formalin (Acros Organics) and we recorded the time mice spent licking/biting/guarding (nocifensive behaviors) the injected hindpaw over the next 60 min.

[5] = target: hCB2 (Homo sapiens, UniProt P34972); experiment: Radioligand competition binding with [3H]-CP-55,940, HEK293 cells stably expressing human CB2R; set-up: expressed in transfected cells; conditions: Fig. S8, read-out: hCB2 pKi (converted)
Experimental: The binding affinities of the compounds were obtained by competition binding using membrane preparations from rat brain (source of CB1) or HEK293 cells stably expressing human CB2R receptors and [^3H]-CP-55,940 as the radioligand, as described. The results were analyzed using nonlinear regression to determine the IC50 and Ki values for each ligand (Prism by GraphPad Software, Inc., San Diego, CA). The Ki values are expressed as the mean of two to three experiments each performed in triplicate.

T1 sequence (P21554 whole entry C98A/C107A/C139A/C149A/C238A/R336C/C355A/C382A/C386A/C415A/C431A/C449A): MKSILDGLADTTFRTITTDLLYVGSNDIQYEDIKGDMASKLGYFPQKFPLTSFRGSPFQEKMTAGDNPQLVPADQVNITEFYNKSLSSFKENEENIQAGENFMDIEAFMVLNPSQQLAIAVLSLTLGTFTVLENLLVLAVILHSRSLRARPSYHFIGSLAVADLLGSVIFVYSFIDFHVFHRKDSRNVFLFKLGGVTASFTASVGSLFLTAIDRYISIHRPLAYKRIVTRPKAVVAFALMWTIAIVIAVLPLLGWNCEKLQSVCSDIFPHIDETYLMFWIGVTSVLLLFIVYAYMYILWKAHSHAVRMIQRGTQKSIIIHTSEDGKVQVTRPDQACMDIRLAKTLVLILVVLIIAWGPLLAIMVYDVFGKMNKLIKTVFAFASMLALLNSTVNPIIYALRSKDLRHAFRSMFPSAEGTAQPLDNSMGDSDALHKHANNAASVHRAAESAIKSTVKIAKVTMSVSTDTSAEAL
Sequence of hCB2 (P34972 whole entry): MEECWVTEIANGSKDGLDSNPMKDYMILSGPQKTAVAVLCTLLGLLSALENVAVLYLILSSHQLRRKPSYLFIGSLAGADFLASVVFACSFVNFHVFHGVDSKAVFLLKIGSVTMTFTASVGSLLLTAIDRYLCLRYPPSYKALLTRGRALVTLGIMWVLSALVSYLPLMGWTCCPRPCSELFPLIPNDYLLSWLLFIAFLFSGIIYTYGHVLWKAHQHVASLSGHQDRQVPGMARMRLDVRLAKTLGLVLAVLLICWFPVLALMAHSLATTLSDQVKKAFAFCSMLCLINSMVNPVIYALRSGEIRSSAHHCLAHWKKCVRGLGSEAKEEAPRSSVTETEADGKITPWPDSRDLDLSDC

Compound	bimane spectrum λmax [1] [nm]	effect on paw withdrawal latency after CFA [2]	effect on SNI mechanical allodynia ([3]; 0.2 mg/kg i.p.)	effect on mechanical thresholds of naïve (non-SNI) animals ([3]; 0.2 mg/kg i.p.)	effect on SNI mechanical allodynia ([3]; intrathecal, up to 100 μg/kg)	duration of phase 1 and phase 2 nocifensive behaviors [4]	Ki [5] [nM]
COC(=O)[C@@](C)(NC(=O)c1cc(C)n(-c2cccc(C(F)(F)F)c2)n1)c1cccs1 [‘1350]	463	–	–	–	–	–	–
COC(=O)C(C)(NC(=O)c1cc(C)n(-c2cccc(C(F)(F)F)c2)n1)c1cccs1 (stereo not shown) [‘4042]	–	analgesic	did not counter the mechanical allodynia	did not alter the mechanical thresholds	modest anti-allodynic effect	profoundly decreased	2.51
